In US10730868B2, “Bicyclic heteroaryl substituted compounds” (BRISTOL-MYERS SQUIBB COMPANY, priority 2016, dated 2020) one finds IC50 data, which are given here for 28 compounds.

This experiment concerns the target PAR4 (Homo sapiens (Human), UniProt Q96RI0). The experiment is described as follows: PAR4 FLIPR assay (antagonism of agonist-peptide-induced calcium mobilization). The experiment is classed as cell-based. Conditions: PAR4-expressing HEK293 cells, read-out: PAR4 FLTPR assay (IC50). An excerpt:
The Fluorometric Imaging Plate Reader (FLIPR) assay is an exemplary in vitro assay for measuring the activity of the PAR4 antagonists of the present invention. In this assay, intracellular calcium mobilization is induced in PAR4 expressing cells by a PAR4 agonist and calcium mobilization is monitored.
HEK293 cells stably expressing PAR4 were generated by a standard method of transfection of human PAR4 (F2R23) cDNA expression vector and selected based on PAR4 protein expression or mRNA expression. […] These cells also express endogenous PAR1 and can elicit calcium signal upon stimulation with PAR1 agonist peptide. Therefore, the same cells were also used to determine selectivity against PAR1 and agonist activity for both receptors. Cells from HEK293 PAR4 Clone 1.2A (BMS Arctic ID 383940) were propagated and used for calcium mobilization studies.
FLIPR-based calcium mobilization assay in HEK293 cells was used to measure PAR4 antagonism agonism, and selectivity against PAR1. The activity of the PAR4 antagonists of the present invention were tested in PAR4 expressing cells by monitoring H-Ala-Phe(4-F)-[…]NH2-induced intracellular calcium mobilization. Counter screens for agonist activity and PAR1 antagonist activity were also performed. Briefly, PAR/PAR4-expressing HEK293 cells were grown in DMEM (Life Technology, Grand Island, N.Y.) containing 10% heat-inactivated FBS, 1% Penicillin-Streptomycin, 10 μg/mL blasticidin, and 100 μg/mL Zeocin at 37° C. with 5% CO2. Cells were plated overnight prior to the experiment in a black 384-well Purecoat Amine clear bottom plate (Becton Dickinson Biosciences, San Jose, Calif.) at 10,000 cells/well in 30 μL growth medium and incubated in a humidified chamber at 37° C. with 5% CO2 overnight. Prior to compound addition, the cell medium was replaced with 40 μL of 1× calcium and magnesium-containing Hank's Balanced Saline Solution (HBSS) (with 20 mM HEPES) and 1:1000 diluted fluorescent calcium indicator (Codex Biosolutions, Gaithersburg, Md.). After a 30 minute incubation period at 37° C. and a further 30 minute incubation and equilibration period at room temperature, 20 μL test compound (diluted in 1×HBSS buffer) was added at various concentrations at 0.17% dimethyl sulfoxide (DMSO) final concentration. Changes in fluorescence intensity were measured using a Functional Drug Screening System (FDSS, Hamamatsu, Japan) to determine agonist activities. The cells were then incubated for 30 minutes at room temperature followed by addition of 20 μL of agonist peptide for antagonist activity measurement. […] Compound potency was derived from 11-point concentration-response curves.
(In general: Calcium assays in cells follow changes in intracellular calcium, usually with a dye or a luminescent sensor.)

Where [1] appears, read: H-Ala-Phe(4-F)-Pro-Gly-Trp-Leu-Val-Lys-Asn-Gly-NH2-induced intracellular calcium mobilization.
The mark [2] stands for this setting: H-Ala-Phe(4-F)-[…]NH2-induced intracellular calcium mobilization.

SMILES strings stand for the structures. Where two headings read alike, the source gives them in different places.

Chain of PAR4 (Q96RI0 18-385): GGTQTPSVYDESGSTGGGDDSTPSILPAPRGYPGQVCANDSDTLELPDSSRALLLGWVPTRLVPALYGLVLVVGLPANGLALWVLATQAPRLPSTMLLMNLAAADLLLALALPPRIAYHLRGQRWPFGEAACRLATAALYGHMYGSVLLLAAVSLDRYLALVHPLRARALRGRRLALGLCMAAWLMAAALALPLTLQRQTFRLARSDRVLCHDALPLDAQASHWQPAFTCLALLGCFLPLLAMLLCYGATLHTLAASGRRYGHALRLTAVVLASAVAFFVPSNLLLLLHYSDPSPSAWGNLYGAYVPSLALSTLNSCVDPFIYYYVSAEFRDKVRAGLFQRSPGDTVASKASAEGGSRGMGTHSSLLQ

For the compound `CNC(=O)c1ccc(NC(=O)O[C@@H]2CCC[C@@H]2Oc2cc3sc(-c4cc(C)cc5nc(OC)cnc45)nc3cc2F)cn1` [Example 48, (1R,2S)-2-((5-fluoro-2-(2-methoxy-7-methylquinoxalin-5-yl)benzo[d]thiazol-6-yl)oxy)cyclopentyl (6-(methylcarbamoyl)pyridin-3-yl)carbamate], the IC50 under setting [1] stood at 2.4 nM.

For the compound `COc1ccc(NC(=O)O[C@H]2CCOC[C@H]2Oc2cc3sc(-c4cc(C#N)cc5nc(OC)cnc45)nc3cc2F)cn1` (racemic) [Example 89, rac-cis-3-((2-(7-cyano-2-methoxyquinoxalin-5-yl)-5-fluorobenzo[d]thiazol-6-yl)oxy)tetrahydro-2H-pyran-4-yl (6-methoxypyridin-3-yl)carbamate], the IC50 under setting [2] was found to be 3.8 nM.

As to `COc1cnc2c(-c3nc4cc(F)c(O[C@@H]5CCC[C@H]5OC)cc4s3)cc(C)cc2n1` (racemic) [Example 42, rac-5-fluoro-2-(2-methoxy-7-methylquinoxalin-5-yl)-6-((trans-2-methoxycyclopentyl)oxy)benzo[d]thiazole], the IC50 under setting [2] was found to be 320 nM.

With `COc1cnc2c(-c3nc4cc(F)c(O[C@H]5CC(F)(F)CC[C@H]5OC(=O)Nc5cnc(C)nc5)cc4s3)cc(C)cc2n1` [Example 4], the IC50 under setting [1] was 1.9 nM.

`COC(=O)c1ccc(NC(=O)O[C@@H]2CCC[C@@H]2Oc2cc3sc(-c4cc(C)cc5nc(OC)cnc45)nc3cc2F)cn1` [Example 47, methyl 5-(((((1R,2S)-2-((5-fluoro-2-(2-methoxy-7-methylquinoxalin-5-yl)benzo[d]thiazol-6-yl)oxy)cyclopentyl)oxy)carbonyl)amino)picolinate]: the IC50 under setting [1] came out at 4.2 nM.

Consider `COc1cnc2c(-c3nc4cc(F)c(O[C@H]5CCC[C@H]5OC(=O)Nc5ccc(C(=O)N(C)C)nc5)cc4s3)cc(C)cc2n1` [Example 50, (1R,2S)-2-((5-fluoro-2-(2-methoxy-7-methylquinoxalin-5-yl)benzo[d]thiazol-6-yl)oxy)cyclopentyl (6-(dimethylcarbamoyl)pyridin-3-yl)carbamate], for which, under setting [1], the IC50 amounted to 3.4 nM.

Regarding `COc1cnc2c(-c3nc4cc(F)c(O[C@@H]5CC[C@@H]5OC(=O)Nc5cnc(OCCO)nc5)cc4s3)cc(C)cc2c1` (stereo in doubt) [Example 74, cis-2-((5-fluoro-2-(3-methoxy-6-methylquinolin-8-yl)benzo[d]thiazol-6-yl)oxy)cyclo butyl (2-(2-hydroxyethoxy)pyrimidin-5-yl)carbamate (Homochiral)], under setting [1], the IC50 turned out to be 8.9 nM.

For the compound `COc1cnc2c(-c3nc4cc(F)c(O[C@@H]5CN(C(=O)OC(C)(C)C)CC[C@@H]5OC(=O)Nc5cnc(C)nc5)cc4s3)cc(C)cc2n1` (racemic) [Example 91, rac-cis-tert-butyl 3-((5-fluoro-2-(2-methoxy-7-methylquinoxalin-5-yl)benzo[d]thiazol-6-yl)oxy)-4-(((2-methylpyrimidin-5-yl)carbamoyl)oxy)piperidine-1-carboxylate], the IC50 under setting [2] turned out to be 3.8 nM.

On to `COc1cnc2c(-c3nc4cc(F)c(O[C@H]5CCC[C@H]5OC(=O)Nc5ncc(C)cn5)cc4s3)cc(C)cc2n1` [Example 26], for which the IC50 under setting [1] was found to be 83 nM.

In the case of `CCOc1cnc2c(-c3nc4cc(F)c(O[C@@H]5CC[C@@H]5OC(=O)Nc5cnc(OCCO)nc5)cc4s3)cc(C)cc2n1` [Example 75], the IC50 under setting [1] was 5.9 nM.

As to `COc1cnc2c(-c3nc4cc(F)c(O[C@H]5CCC[C@H]5OC(=O)Nc5cnc(C(N)=O)nc5)cc4s3)cc(C)cc2n1` [Example 52, (1R,2S)-2-((5-fluoro-2-(2-methoxy-7-methylquinoxalin-5-yl)benzo[d]thiazol-6-yl)oxy)cyclopentyl (2-carbamoylpyrimidin-5-yl)carbamate], the IC50 under setting [1] is 2.5 nM.

With `COc1cnc2c(-c3nc4cc(F)c(O[C@H]5CC(F)(F)CC[C@H]5OC(=O)Nc5cnc(CCO)nc5)cc4s3)cc(C)cc2n1` [Example 3], the IC50 under setting [1] is 0.82 nM.

`COc1ccc(NC(=O)O[C@@H]2CC[C@@H]2Oc2cc3sc(-c4cc(C)cc5nc(OC)cnc45)nc3cc2F)cn1` [Example 73]: the IC50 under setting [1] was found to be 0.5 nM.

Take `COc1cnc2c(-c3nc4cc(F)c(O[C@H]5CC(F)(F)CC[C@H]5OC(=O)Nc5ccc(C(=O)NCC(C)(C)O)nc5)cc4s3)cc(C)cc2n1` [Example 2]: the IC50 under setting [1] was found to be 0.46 nM.

As for `COc1ccc(NC(=O)O[C@H]2COC[C@H]2Oc2cc3sc(-c4cc(C)cc5nc(OC)cnc45)nc3cc2F)cn1` (racemic) [Example 87, rac-cis-4-((5-fluoro-2-(2-methoxy-7-methylquinoxalin-5-yl)benzo[d]thiazol-6-yl)oxy) tetrahydrofuran-3-yl (6-methoxypyridin-3-yl)carbamate], under setting [2], the IC50 was found to be 6.2 nM.

As for `COc1cnc2c(-c3nc4cc(F)c(O[C@H]5CCC[C@H]5OC(N)=O)cc4s3)cc(C)cc2n1` [Example 39], the IC50 under setting [1] was 400 nM.

Regarding `COc1cnc2c(-c3nc4cc(F)c(O[C@H]5CC(F)(F)CC[C@H]5OC(=O)Nc5cnc(OCCO)nc5)cc4s3)cc(C)cc2n1` [Example 1], the IC50 under setting [1] was found to be 1.6 nM.

For `COc1cnc2c(-c3nc4cc(F)c(O[C@H]5CCC[C@H]5OC(=O)Nc5ccnc(C)c5)cc4s3)cc(C)cc2n1` [Example 30], the IC50 under setting [1] worked out at 2.6 nM.

`COc1cnc2c(-c3nc4cc(F)c(O[C@H]5CCC[C@H]5OC(=O)Nc5cnc(C)nc5)cc4s3)cc(C)cc2n1` [Example 37]: the IC50 under setting [1] turned out to be 4 nM.

As for `COc1cnc2c(-c3nc4cc(F)c(O[C@H]5CCC[C@H]5OC(=O)Nc5ccc(C)nc5)cc4s3)cc(C)cc2n1` [Example 32], the IC50 under setting [1] was found to be 2.6 nM.

For `COc1cnc2c(-c3nc4cc(F)c(O[C@@H]5CN(C(C)=O)CC[C@@H]5OC(=O)Nc5cnc(C)nc5)cc4s3)cc(C)cc2n1` (racemic) [Example 94, rac-cis-1-acetyl-3-((5-fluoro-2-(2-methoxy-7-methylquinoxalin-5-yl)benzo[d]thiazol-6-yl)oxy)piperidin-4-yl (2-methylpyrimidin-5-yl)carbamate], the IC50 under setting [2] was determined as 2300 nM.

Consider `COc1cnc2c(-c3nc4cc(F)c(O[C@@H]5CCC[C@H]5O)cc4s3)cc(C)cc2n1` (racemic) [Example 41, rac-trans-2-((5-fluoro-2-(2-methoxy-7-methylquinoxalin-5-yl)benzo[d]thiazol-6-yl)oxy)cyclopentanol], for which the IC50 under setting [2] worked out at 180 nM.

On to `COc1cnc2c(-c3nc4cc(F)c(O[C@@H]5CCCC[C@H]5OC(=O)Nc5cnc(C)nc5)cc4s3)cc(C)cc2n1` (racemic) [Example 54, rac-trans-2-((5-fluoro-2-(2-methoxy-7-methylquinoxalin-5-yl)benzo[d]thiazol-6-yl)oxy)cyclohexyl (2-methylpyrimidin-5-yl)carbamate], for which the IC50 under setting [2] was 13 nM.

For the compound `COc1cnc2c(-c3nc4cc(F)c(O[C@H]5CC[C@H]5OC(=O)Nc5cnc(C)nc5)cc4s3)cc(C)cc2n1` [Example 69], the IC50 under setting [1] was 1.2 nM.

In the case of `COc1cnc2c(-c3nc4cc(F)c(O[C@@H]5CN(C(=O)OCc6ccccc6)C[C@H]5O)cc4s3)cc(C)cc2n1` (racemic) [Example 90, rac-trans-benzyl 3-((5-fluoro-2-(2-methoxy-7-methylquinoxalin-5-yl)benzo[d]thiazol-6-yl)oxy)-4-hydr oxopyrrolidine-1-carboxylate], the IC50 under setting [2] is 330 nM.

On to `COc1cnc2c(-c3nc4cc(F)c(O[C@H]5CC[C@H]5O)cc4s3)cc(C)cc2n1` [Example 60, cis-2-((5-fluoro-2-(2-methoxy-7-methylquinoxalin-5-yl)benzo[d]thiazol-6-yl)oxy)cyclobutanol (Homochiral)], for which, under setting [1], the IC50 was determined as 9.8 nM.

As to `COc1cnc2c(-c3nc4cc(F)c(O[C@H]5CC(F)(F)CC[C@H]5OC(=O)Nc5ccnnc5)cc4s3)cc(C)cc2n1` [Example 9], the IC50 under setting [1] turned out to be 12 nM.

For the compound `COc1cnc2c(-c3nc4cc(F)c(O[C@H]5CCC[C@H]5OC(=O)Nc5ccc(C(N)=O)nc5)cc4s3)cc(C)cc2n1` [Example 49, (1R,2S)-2-((5-fluoro-2-(2-methoxy-7-methylquinoxalin-5-yl)benzo[d]thiazol-6-yl)oxy)cyclopentyl (6-carbamoylpyridin-3-yl)carbamate], the IC50 under setting [1] stood at 3.6 nM.

For orientation: IC50 means the concentration that gives 50% inhibition.
